Reference: patent US20230117034A1, “PYRAZOLOTRIAZINES” (Bayer Aktiengesellschaft, priority 2019, published 2023)

Biological target: T1, CDK12 (nuclear staining in CAL-120 cells) (Homo sapiens, UniProt Q9NYV4)
T1 construct: endogenous in cells; host or cells: CAL-120 human breast cancer cells (DSMZ ACC 459)
Assay: CDK12 nuclear protein level: immunofluorescence/high content analysis (CAL-120)
Format: cell-based
Conditions: for DC50: CAL-120 cells, 24 h, immunofluorescence, 50% reduction of nuclear CDK12 staining intensity, median, read-out: CDK12 degradation IF, DC50- [mol/l] (median); for (IC50 CDK12 high ATP) to (Degradation DC50 CDK12) ratio: ratio of IC50 CDK12 high ATP kinase assay to DC50 CDK12 degradation (IF, CAL-120)
In short: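 CAL-120 cells were treated with compound for 24 h at 37 °C, fixed with PFA and immunostained for CDK12. Nuclear CDK12 intensity was quantified by automated image analysis and normalized to DMSO and control. DC50 is the concentration giving 50% reduction of nuclear staining.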

T1 sequence (Q9NYV4 whole entry): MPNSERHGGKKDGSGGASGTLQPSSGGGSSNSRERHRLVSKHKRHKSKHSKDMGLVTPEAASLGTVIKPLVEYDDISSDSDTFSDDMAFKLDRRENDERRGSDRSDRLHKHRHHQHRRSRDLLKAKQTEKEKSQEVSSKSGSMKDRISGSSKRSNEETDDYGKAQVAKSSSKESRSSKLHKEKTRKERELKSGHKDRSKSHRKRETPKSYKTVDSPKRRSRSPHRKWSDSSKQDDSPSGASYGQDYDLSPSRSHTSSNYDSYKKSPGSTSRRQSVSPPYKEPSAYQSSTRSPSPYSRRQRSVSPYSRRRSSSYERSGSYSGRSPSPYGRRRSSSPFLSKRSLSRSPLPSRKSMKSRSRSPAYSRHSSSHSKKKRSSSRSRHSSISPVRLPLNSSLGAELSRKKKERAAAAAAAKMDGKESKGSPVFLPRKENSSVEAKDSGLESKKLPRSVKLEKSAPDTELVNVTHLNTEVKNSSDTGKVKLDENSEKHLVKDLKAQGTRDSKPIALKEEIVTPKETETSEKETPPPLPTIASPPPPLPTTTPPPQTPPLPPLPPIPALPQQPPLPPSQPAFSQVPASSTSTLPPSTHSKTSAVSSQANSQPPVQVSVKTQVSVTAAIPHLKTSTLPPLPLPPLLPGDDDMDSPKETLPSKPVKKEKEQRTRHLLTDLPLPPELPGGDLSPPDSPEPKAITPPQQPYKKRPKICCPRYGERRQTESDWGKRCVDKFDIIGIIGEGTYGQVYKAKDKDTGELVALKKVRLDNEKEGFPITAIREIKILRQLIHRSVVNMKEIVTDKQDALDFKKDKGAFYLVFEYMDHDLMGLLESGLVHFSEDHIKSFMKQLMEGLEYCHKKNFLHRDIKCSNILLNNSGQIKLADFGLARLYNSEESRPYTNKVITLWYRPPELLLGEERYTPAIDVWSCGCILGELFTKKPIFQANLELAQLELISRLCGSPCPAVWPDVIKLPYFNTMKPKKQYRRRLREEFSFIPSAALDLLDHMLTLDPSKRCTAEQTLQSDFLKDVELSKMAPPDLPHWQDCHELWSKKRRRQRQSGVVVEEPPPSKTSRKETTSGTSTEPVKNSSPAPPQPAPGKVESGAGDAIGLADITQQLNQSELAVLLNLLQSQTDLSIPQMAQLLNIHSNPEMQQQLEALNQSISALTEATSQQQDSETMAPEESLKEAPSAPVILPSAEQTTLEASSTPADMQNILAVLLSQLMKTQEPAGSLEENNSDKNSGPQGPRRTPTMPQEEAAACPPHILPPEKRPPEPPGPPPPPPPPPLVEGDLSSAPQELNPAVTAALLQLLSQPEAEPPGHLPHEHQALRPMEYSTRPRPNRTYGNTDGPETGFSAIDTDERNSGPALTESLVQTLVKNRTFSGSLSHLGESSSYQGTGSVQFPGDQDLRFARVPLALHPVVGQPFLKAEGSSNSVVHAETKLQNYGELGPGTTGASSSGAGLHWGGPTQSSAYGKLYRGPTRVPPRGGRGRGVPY
T1 sequence (O75909 whole entry partner): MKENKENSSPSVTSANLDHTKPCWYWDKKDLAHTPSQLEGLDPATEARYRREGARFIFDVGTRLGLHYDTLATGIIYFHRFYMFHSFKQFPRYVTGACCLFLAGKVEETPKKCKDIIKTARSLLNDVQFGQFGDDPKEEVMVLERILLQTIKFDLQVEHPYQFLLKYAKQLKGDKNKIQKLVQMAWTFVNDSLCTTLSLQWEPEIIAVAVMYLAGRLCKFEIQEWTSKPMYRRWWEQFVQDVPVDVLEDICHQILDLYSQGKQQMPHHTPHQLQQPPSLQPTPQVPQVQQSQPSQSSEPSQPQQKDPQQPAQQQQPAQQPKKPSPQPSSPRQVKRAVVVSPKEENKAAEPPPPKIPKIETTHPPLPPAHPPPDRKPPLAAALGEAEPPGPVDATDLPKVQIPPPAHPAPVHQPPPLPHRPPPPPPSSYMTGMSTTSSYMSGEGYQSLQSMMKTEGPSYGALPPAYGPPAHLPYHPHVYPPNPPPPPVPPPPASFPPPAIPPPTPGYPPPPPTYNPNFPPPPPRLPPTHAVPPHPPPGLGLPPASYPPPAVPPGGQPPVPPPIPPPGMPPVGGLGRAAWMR

| DC50 | (IC50 CDK12 high ATP) to (Degradation DC50 CDK12) ratio | Structure (SMILES) |
| --- | --- | --- |
| 4.28 nM | 276 | COc1cccc(-c2cnc(CNc3nc(N4CCOCC4)nc4c(Br)cnn34)[nH]2)c1 [Example 80, 8-bromo-N-{[5-(3-methoxyphenyl)-1H-imidazol-2-yl]methyl}-2-(morpholin-4-yl)pyrazolo[1,5-a][1,3,5]triazin-4-amine] |
| 2.36 nM | 1378 | c1ccc2[nH]c(CNc3nc(N4CCOCC4)nc4c(C5CC5)cnn34)nc2c1 [Example 92, N-[(1H-benzimidazol-2-yl)methyl]-8-cyclopropyl-2-(morpholin-4-yl)pyrazolo[1,5-a][1,3,5]triazin-4-amine] |
| 8.46 nM | >2365 | CC(C)c1cnn2c(NCc3nc4ccccc4[nH]3)nc(N3CCN(C)CC3)nc12 [Example 2, N-[(1H-benzimidazol-2-yl)methyl]-2-(4-methylpiperazin-1-yl)-8-(propan-2-yl)pyrazolo[1,5-a][1,3,5]triazin-4-amine] |
| 1.23 nM | 460 | Fc1cccc(-c2cnc(CNc3nc(N4CCOCC4)nc4c(Br)cnn34)[nH]2)c1 [Example 79, 8-bromo-N-{[5-(3-fluorophenyl)-1H-imidazol-2-yl]methyl}-2-(morpholin-4-yl)pyrazolo[1,5-a][1,3,5]triazin-4-amine] |
| 94.5 nM | >212 | CC(C)c1cnn2c(NCc3nc4ccccc4[nH]3)nc(N(C)C)nc12 [Example 3, N^4-[(1H-benzimidazol-2-yl)methyl]-N^2,N^2-dimethyl-8-(propan-2-yl)pyrazolo[1,5-a][1,3,5]triazine-2,4-diamine] |
| 7.9 nM | 79 | OC[C@@H]1CCCCN1c1nc(NCc2nnc(-c3ccccc3)[nH]2)n2ncc(Br)c2n1 [Example 70, [(2S)-1-(8-bromo-4-{[(5-phenyl-4H-1,2,4-triazol-3-yl)methyl]amino}pyrazolo[1,5-a][1,3,5]triazin-2-yl)piperidin-2-yl]methanol] |
| 23.3 nM | 116 | c1ccc(-c2nnc(CNc3nc(N4CCOCC4)nc4c(C5CC5)cnn34)[nH]2)cc1 [Example 93, 8-cyclopropyl-2-(morpholin-4-yl)-N-[(5-phenyl-4H-1,2,4-triazol-3-yl)methyl]pyrazolo[1,5-a][1,3,5]triazin-4-amine] |
| 42.8 nM | >133 | Fc1cccc(-c2cnn3c(NCc4nc5ccccc5[nH]4)nc(N4CCOCC4)nc23)c1 [Example 91, N-[(1H-benzimidazol-2-yl)methyl]-8-(3-fluorophenyl)-2-(morpholin-4-yl)pyrazolo[1,5-a][1,3,5]triazin-4-amine] |
| 57.4 nM | – | FC(F)(F)Oc1ccccc1-c1nnc(CNc2nc(N3CCOCC3)nc3c(Br)cnn23)[nH]1 [Example 74, 8-bromo-2-(morpholin-4-yl)-N-({5-[2-(trifluoromethoxy)phenyl]-4H-1,2,4-triazol-3-yl}methyl)pyrazolo[1,5-a][1,3,5]triazin-4-amine] |
| 16.3 nM | 84 | FC(F)(F)c1ccccc1-c1cnc(CNc2nc(N3CCOCC3)nc3c(Br)cnn23)[nH]1 [Example 88, 8-bromo-2-(morpholin-4-yl)-N-({5-[2-(trifluoromethyl)phenyl]-1H-imidazol-2-yl}methyl)pyrazolo[1,5-a][1,3,5]triazin-4-amine] |
| 2.16 nM | 1196 | COc1ccccc1-c1cnc(CNc2nc(N3CCOCC3)nc3c(Br)cnn23)[nH]1 [Example 87, 8-bromo-N-{[5-(2-methoxyphenyl)-1H-imidazol-2-yl]methyl}-2-(morpholin-4-yl)pyrazolo[1,5-a][1,3,5]triazin-4-amine] |
| 5.57 nM | 1137 | Cc1ccccc1-c1cnc(CNc2nc(N3CCOCC3)nc3c(Br)cnn23)[nH]1 [Example 85, 8-bromo-N-{[5-(2-methylphenyl)-1H-imidazol-2-yl]methyl}-2-(morpholin-4-yl)pyrazolo[1,5-a][1,3,5]triazin-4-amine] |
| 4.05 nM | 1092 | Brc1cnn2c(NCc3ncc(-c4ccccn4)[nH]3)nc(N3CCOCC3)nc12 [Example 90, 8-bromo-2-(morpholin-4-yl)-N-{[5-(pyridin-2-yl)-1H-imidazol-2-yl]methyl}pyrazolo[1,5-a][1,3,5]triazin-4-amine] |
| 22.3 nM | 41 | FC(F)(F)Oc1cccc(-c2cnc(CNc3nc(N4CCOCC4)nc4c(Br)cnn34)[nH]2)c1 [Example 82, 8-bromo-2-(morpholin-4-yl)-N-({5-[3-(trifluoromethoxy)phenyl]-1H-imidazol-2-yl}methyl)pyrazolo[1,5-a][1,3,5]triazin-4-amine] |
| 3.77 nM | 727 | OCC1COCCN1c1nc(NCc2nc3ccccc3[nH]2)n2ncc(Br)c2n1 (stereo not shown) [Example 67, (4-{4-[(1H-benzimidazol-2-ylmethyl)amino]-8-bromopyrazolo[1,5-a][1,3,5]triazin-2-yl}morpholin-3-yl)methanol] |
| 4.15 nM | 245 | Brc1cnn2c(NCc3nnc(-c4ccccc4)[nH]3)nc(N3CC4(COC4)C3)nc12 [Example 65, 8-bromo-2-(2-oxa-6-azaspiro[3.3]heptan-6-yl)-N-[(5-phenyl-4H-1,2,4-triazol-3-yl)methyl]pyrazolo[1,5-a][1,3,5]triazin-4-amine] |
| 10 nM | 55 | Clc1ccc(-c2cnc(CNc3nc(N4CCOCC4)nc4c(Br)cnn34)[nH]2)cc1 [Example 72, 8-bromo-N-{[5-(4-chlorophenyl)-1H-imidazol-2-yl]methyl}-2-(morpholin-4-yl)pyrazolo[1,5-a][1,3,5]triazin-4-amine] |
| 21.2 nM | 98 | Brc1cnn2c(NCc3ncc(-c4cccnc4)[nH]3)nc(N3CCOCC3)nc12 [Example 84, 8-bromo-2-(morpholin-4-yl)-N-{[5-(pyridin-3-yl)-1H-imidazol-2-yl]methyl}pyrazolo[1,5-a][1,3,5]triazin-4-amine] |
| 84.5 nM | >68 | Clc1ccccc1-c1nnc(CNc2nc(N3CCOCC3)nc3c(Br)cnn23)[nH]1 [Example 69, 8-bromo-N-{[5-(2-chlorophenyl)-4H-1,2,4-triazol-3-yl]methyl}-2-(morpholin-4-yl)pyrazolo[1,5-a][1,3,5]triazin-4-amine] |
| 4.34 nM | 998 | OC[C@H]1CCCCN1c1nc(NCc2nnc(-c3ccccc3)[nH]2)n2ncc(Br)c2n1 [Example 71, [(2R)-1-(8-bromo-4-{[(5-phenyl-4H-1,2,4-triazol-3-yl)methyl]amino}pyrazolo[1,5-a][1,3,5]triazin-2-yl)piperidin-2-yl]methanol] |
| 116 nM | 87 | COC(=O)C1CCN(c2nc(NCc3nnc(-c4ccccc4)[nH]3)n3ncc(Br)c3n2)CC1 [Example 77, methyl 1-(8-bromo-4-{[(5-phenyl-4H-1,2,4-triazol-3-yl)methyl]amino}pyrazolo[1,5-a][1,3,5]triazin-2-yl)piperidine-4-carboxylate] |
| 13.3 nM | 415 | CC1(C)CN(c2nc(NCc3nnc(-c4ccccc4)[nH]3)n3ncc(Br)c3n2)CCO1 [Example 68, 8-bromo-2-(2,2-dimethylmorpholin-4-yl)-N-[(5-phenyl-4H-1,2,4-triazol-3-yl)methyl]pyrazolo[1,5-a][1,3,5]triazin-4-amine] |
| 5.31 nM | 144 | Clc1cccc(-c2cnc(CNc3nc(N4CCOCC4)nc4c(Br)cnn34)[nH]2)c1 [Example 81, 8-bromo-N-{[5-(3-chlorophenyl)-1H-imidazol-2-yl]methyl}-2-(morpholin-4-yl)pyrazolo[1,5-a][1,3,5]triazin-4-amine] |
| 3.95 nM | 478 | Fc1ccccc1-c1cnc(CNc2nc(N3CCOCC3)nc3c(Br)cnn23)[nH]1 [Example 86, 8-bromo-N-{[5-(2-fluorophenyl)-1H-imidazol-2-yl]methyl}-2-(morpholin-4-yl)pyrazolo[1,5-a][1,3,5]triazin-4-amine] |
| 5.15 nM | 129 | C[C@@H]1CN(c2nc(NCc3nc4ccccc4[nH]3)n3ncc(Br)c3n2)C[C@H](C)O1 [Example 73, N-[(1H-benzimidazol-2-yl)methyl]-8-bromo-2-[(2R,6S)-2,6-dimethylmorpholin-4-yl]pyrazolo[1,5-a][1,3,5]triazin-4-amine] |
| 7.38 nM | >511 | Fc1ccccc1-c1nnc(CNc2nc(N3CCOCC3)nc3c(Br)cnn23)[nH]1 [Example 75, 8-bromo-N-{[5-(2-fluorophenyl)-4H-1,2,4-triazol-3-yl]methyl}-2-(morpholin-4-yl)pyrazolo[1,5-a][1,3,5]triazin-4-amine] |
| 12.1 nM | >440 | COC1CCN(c2nc(NCc3nnc(-c4ccccc4)[nH]3)n3ncc(Br)c3n2)CC1 [Example 76, 8-bromo-2-(4-methoxypiperidin-1-yl)-N-[(5-phenyl-4H-1,2,4-triazol-3-yl)methyl]pyrazolo[1,5-a][1,3,5]triazin-4-amine] |
| 7.3 nM | 1471 | FC(F)(F)Oc1ccccc1-c1cnc(CNc2nc(N3CCOCC3)nc3c(Br)cnn23)[nH]1 [Example 89, 8-bromo-2-(morpholin-4-yl)-N-({5-[2-(trifluoromethoxy)phenyl]-1H-imidazol-2-yl}methyl)pyrazolo[1,5-a][1,3,5]triazin-4-amine] |
